# Measurements reported in ChEMBL document CHEMBL1201862, “PubChem BioAssay data set” (2004).
# Calls of active or inactive are those of the source.
# How the values were obtained:
# [1] = molecular target: Glucose-6-phosphate 1-dehydrogenase (Homo sapiens, UniProt P11413); test: human G6PD enzyme inhibitors, dose response, selectivity assay for P. falciparum G6PD inhibitor project, biochemical, fluorescence (AID 504792); type: functional
# [2] = molecular target: DNA dC->dU-editing enzyme APOBEC-3G (Homo sapiens, UniProt Q9HC16); test: Dose Response confirmation of small molecule APOBEC3G DNA Deaminase Inhibitors via a fluorescence-based single-stranded DNA deaminase assay. [Related pubchem assays (depositor defined):AID493012, AID493028]; type: functional
# cells [3] = type: functional
# [4] = inhibitors of HIV Env-driven cell fusion, dose response, cherry-pick (AID 652057); type: functional, cell-based
# [5] = ZM109 Env clade C HIV-1 fusion inhibitors, dose response, HeLa effector, CEM target cells, luciferase, cherry-pick (AID 652058); type: functional, cell-based
# [6] = inhibitors of clade B AD8 Env fusion, dose response, cell-based, cherry-pick (AID 652062); type: functional;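 further: luciferase signal from cell-cell fusion driven by HIV-1 clade B AD8 Env; potency is for inhibitors of fusion seen as a drop in luminescence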
# cells [7] = type: functional, cell-based
# cells [8] = type: functional, cell-based; remark: listed apart in the source
# [9] = THP-1 cell cytotoxicity, dose response, cytotoxicity control for non-replicating M. tuberculosis project (AID 489025); type: functional
# [10] = Vero E6 cell cytotoxicity, dose response, cytotoxicity control for non-replicating M. tuberculosis project, secondary assay (AID 492998); type: functional, VeroE6; conditions: Vero C1008
# [11] = molecular target: T1, Microphthalmia-associated transcription factor (Homo sapiens, UniProt O75030); test: TRPM1 promoter luciferase signal decrease, dose response, MITF inhibitor project, cell-based, SK-MEL-5, cherry-picked, set 3 (AID 493073); type: functional
# T1 sequence (O75030 whole entry): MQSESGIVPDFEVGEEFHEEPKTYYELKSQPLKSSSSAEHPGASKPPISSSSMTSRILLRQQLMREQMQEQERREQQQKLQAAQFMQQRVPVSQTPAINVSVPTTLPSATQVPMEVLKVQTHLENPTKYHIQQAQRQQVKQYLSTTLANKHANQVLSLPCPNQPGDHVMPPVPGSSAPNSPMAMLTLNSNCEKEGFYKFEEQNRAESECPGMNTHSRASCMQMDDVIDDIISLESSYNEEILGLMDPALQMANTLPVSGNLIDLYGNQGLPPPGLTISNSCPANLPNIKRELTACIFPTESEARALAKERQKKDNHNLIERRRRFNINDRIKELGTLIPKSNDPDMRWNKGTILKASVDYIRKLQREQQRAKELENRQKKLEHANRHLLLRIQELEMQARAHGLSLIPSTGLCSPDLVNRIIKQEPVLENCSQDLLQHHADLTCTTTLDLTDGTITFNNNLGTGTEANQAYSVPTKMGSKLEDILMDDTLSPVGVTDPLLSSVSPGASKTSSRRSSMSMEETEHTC
# SN12K1 = test: cells; type: functional; conditions: Homo sapiens
# [12] = HEp-2 cell cytotoxicity, dose response, cytotoxicity control for RSV inhibitor project, HTS (AID 2410); type: functional; conditions: human respiratory syncytial virus
# Fatty acid synthase [13] = molecular target: T2, Fatty acid synthase (Homo sapiens, UniProt P49327); test: FAS thioesterase domain inhibitors, dose response, biochemical, endpoint fluorescence intensity, uHTS hits (AID 624327); type: functional;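 further: fluorescence from hydrolysis of an O-methyl fluorescein acyl ester substrate by the enzyme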
# Fatty acid synthase [14] = molecular target: T2, Fatty acid synthase; test: FAS thioesterase domain inhibitors, dose response, biochemical, kinetic fluorescence intensity (AID 624326); type: functional;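 further: rate of fluorescence rise from hydrolysis of a fluorogenic O-methyl fluorescein ester substrate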
# T2 sequence (P49327 whole entry, the tested form may be a part): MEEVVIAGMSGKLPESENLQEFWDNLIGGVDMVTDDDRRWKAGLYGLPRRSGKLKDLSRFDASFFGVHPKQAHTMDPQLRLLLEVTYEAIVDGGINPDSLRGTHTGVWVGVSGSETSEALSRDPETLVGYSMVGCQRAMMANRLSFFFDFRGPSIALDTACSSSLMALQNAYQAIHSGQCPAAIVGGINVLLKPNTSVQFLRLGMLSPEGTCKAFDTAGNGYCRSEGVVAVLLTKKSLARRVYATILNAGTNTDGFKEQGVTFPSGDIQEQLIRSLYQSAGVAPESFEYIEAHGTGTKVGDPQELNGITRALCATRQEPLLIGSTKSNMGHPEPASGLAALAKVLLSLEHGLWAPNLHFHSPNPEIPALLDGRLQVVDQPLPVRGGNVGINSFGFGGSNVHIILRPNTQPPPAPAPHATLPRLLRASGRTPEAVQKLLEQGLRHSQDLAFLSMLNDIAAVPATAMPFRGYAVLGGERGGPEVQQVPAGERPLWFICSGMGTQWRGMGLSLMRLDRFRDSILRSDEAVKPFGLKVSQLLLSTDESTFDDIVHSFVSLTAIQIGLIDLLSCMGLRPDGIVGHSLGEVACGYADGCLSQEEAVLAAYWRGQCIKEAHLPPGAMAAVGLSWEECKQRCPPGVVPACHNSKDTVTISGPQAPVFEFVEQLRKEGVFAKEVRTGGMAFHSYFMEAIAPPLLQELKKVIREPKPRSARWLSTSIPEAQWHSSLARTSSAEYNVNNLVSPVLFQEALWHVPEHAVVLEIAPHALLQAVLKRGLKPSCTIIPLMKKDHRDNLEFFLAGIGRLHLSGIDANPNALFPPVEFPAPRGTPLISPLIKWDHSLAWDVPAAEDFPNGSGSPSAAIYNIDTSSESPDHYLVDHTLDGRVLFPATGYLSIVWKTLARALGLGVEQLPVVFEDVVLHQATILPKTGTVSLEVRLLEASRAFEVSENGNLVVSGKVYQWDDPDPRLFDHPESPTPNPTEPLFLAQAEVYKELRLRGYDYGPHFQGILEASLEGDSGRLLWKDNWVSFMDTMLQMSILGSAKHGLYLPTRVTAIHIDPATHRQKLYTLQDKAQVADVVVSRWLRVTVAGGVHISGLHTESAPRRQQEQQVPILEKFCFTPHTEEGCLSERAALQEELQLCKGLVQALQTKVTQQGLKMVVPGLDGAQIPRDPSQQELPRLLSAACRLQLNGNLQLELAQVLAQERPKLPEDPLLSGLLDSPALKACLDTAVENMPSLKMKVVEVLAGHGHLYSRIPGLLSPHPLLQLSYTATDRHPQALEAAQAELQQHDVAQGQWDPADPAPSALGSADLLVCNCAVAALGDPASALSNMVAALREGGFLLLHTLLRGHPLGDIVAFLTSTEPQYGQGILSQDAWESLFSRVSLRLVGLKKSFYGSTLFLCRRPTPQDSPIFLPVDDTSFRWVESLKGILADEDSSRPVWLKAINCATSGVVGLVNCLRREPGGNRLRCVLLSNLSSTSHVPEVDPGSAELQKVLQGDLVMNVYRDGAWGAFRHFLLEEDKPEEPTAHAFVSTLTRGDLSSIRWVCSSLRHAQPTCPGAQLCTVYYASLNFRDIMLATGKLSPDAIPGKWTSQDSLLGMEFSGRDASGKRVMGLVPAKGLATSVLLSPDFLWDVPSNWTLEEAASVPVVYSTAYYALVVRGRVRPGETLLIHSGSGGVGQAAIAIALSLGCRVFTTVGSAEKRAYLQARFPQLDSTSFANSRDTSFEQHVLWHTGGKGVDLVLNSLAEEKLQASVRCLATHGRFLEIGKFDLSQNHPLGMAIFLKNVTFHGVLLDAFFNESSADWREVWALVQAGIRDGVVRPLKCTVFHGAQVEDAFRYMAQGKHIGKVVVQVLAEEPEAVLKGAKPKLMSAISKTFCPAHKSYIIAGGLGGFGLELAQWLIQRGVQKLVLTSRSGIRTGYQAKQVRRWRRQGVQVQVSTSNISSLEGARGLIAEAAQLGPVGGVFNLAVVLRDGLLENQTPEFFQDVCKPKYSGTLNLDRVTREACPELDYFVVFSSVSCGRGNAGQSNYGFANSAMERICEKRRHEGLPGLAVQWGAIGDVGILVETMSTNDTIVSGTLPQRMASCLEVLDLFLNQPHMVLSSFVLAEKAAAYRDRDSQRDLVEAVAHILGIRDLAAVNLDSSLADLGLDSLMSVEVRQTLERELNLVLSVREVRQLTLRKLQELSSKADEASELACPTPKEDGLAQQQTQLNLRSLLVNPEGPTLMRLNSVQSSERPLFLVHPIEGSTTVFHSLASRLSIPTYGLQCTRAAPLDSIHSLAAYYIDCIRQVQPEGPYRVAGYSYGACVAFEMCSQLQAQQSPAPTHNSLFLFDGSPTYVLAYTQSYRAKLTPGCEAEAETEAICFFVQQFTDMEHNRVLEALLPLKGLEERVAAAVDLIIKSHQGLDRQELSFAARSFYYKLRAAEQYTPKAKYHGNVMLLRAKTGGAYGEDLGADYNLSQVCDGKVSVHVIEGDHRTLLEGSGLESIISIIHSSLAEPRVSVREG
# Chain of DNA dC->dU-editing enzyme APOBEC-3G (Q9HC16 whole entry): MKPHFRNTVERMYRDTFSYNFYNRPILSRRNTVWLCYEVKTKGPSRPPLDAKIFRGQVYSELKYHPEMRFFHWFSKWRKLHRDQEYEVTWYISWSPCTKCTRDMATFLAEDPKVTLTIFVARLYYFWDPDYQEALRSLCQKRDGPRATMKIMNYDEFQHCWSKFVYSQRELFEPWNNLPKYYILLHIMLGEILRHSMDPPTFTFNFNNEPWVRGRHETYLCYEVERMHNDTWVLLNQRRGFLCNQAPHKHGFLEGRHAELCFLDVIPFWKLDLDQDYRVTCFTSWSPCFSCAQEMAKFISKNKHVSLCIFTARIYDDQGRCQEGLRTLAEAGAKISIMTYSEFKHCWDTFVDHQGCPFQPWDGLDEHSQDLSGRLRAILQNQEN
# Chain of Glucose-6-phosphate 1-dehydrogenase (P11413 whole entry): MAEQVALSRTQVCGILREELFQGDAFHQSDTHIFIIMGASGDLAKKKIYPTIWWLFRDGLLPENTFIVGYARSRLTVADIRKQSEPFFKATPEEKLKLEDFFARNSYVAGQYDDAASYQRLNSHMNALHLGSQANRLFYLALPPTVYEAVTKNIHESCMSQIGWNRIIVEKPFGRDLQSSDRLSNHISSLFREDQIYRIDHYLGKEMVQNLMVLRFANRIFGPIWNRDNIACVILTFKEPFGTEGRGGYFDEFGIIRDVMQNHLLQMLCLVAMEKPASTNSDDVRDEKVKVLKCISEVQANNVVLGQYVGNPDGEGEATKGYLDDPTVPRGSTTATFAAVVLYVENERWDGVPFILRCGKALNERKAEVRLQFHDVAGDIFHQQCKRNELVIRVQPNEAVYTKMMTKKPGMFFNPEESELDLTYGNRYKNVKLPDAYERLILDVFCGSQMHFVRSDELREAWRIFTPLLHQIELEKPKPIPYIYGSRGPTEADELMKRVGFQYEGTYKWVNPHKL
structure (smiles),measurement,setting,value
COC(=O)CCC(=O)Nc1sc(Cc2ccccc2)c(C)c1C(N)=O,IC50,[1],> 80 µM (inactive)
same,IC50,[2],31.1 µM (active)
same,IC50,cells [3],49 µM (active)
COc1cccc(S(=O)(=O)N2CCC3(CC2)CN(C(=O)Nc2cccc(F)c2)[C@@H](CO)c2[nH]c4cc(OC)ccc4c23)c1,AC50,[4],6.21 µM (active)
same,AC50,[5],6.68 µM (active)
same,AC50,[6],8.03 µM (active)
COc1cccc2sc(N3CCN(C(=O)c4ccc([N+](=O)[O-])o4)CC3)nc12,EC50,cells [7],> 350 µM (not active)
same,EC50,cells [8],> 350 µM (not active)
same,CC50,[9],36.5 µM (active)
same,CC50,[10],18.9 µM (active)
same,AC50,[11],7.03 µM (active)
same,IC50,cells [3],< 0.1 µM (active)
Nc1ncnc2c1ncn2C1C(O)C=C(CO)C1O (stereo unspecified),GI50,SN12K1,> 625 µM (inactive)
C=CCSC(=S)NC1CCS(=O)(=O)C1 (stereo unspecified),CC50,[12],24.6 µM (active)
same,AC50,[11],20.7 µM (active)
CCOc1ccccc1N(CC)C(=O)c1ccc2c(=O)n3c(nc2c1)CCCCC3,IC50,Fatty acid synthase [13],3.88 µM (active)
same,IC50,Fatty acid synthase [14],3.45 µM (active)
COC(=O)[C@H](C)NC(=O)c1cc2c3ccccc3nc-2c[nH]1,IC50,[1],> 80 µM (inactive)
same,IC50,[2],25.6 µM (active)
O=C(COc1ccc(S(=O)(=O)N2CCCCC2)cc1)Nc1ccccc1F,IC50,Fatty acid synthase [13],16 µM (active)
same,IC50,Fatty acid synthase [14],17.2 µM (active)
